According to patent US20060009493A1, “Indolinone hydrazides as c-Met inhibitors” (Sugen, Inc., priority 2003, published 2006):

These compounds were tested against T1, GST fusion protein containing the Met kinase domain (Homo sapiens, UniProt P08581) (assay: MET Transphosphorylation Assay (ELISA, poly(Glu,Tyr) 4:1 substrate)). Conditions: met transphosphorylation of poly(glutamic acid:tyrosine 4:1) substrate; two values in a cell separated by '/'.
T1 construct: Purified GST fusion protein containing the Met kinase domain, Sugen, Inc
T1 sequence (P08581 1078-1345 limits assumed): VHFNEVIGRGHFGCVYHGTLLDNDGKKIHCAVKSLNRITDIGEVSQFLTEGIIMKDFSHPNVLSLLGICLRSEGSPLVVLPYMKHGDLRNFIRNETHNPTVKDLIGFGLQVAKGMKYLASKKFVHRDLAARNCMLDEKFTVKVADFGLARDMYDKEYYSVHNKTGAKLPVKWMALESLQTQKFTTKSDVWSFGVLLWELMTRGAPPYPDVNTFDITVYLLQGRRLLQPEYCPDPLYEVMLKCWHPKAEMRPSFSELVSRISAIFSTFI
Type: biochemical
Description: MET Transphosphorylation Assay
This assay is used to measure phosphotyrosine levels on a poly(glutamic acid:tyrosine (4:1)) substrate as a means for identifying agonists/antagonists of met transphosphorylation of the substrate.
• 1. […] PBS, Gibco Catalog # 450-1300EB • 4. 50 mM HEPES • 5. […] Purified GST fusion protein containing the Met kinase domain, Sugen, Inc. • 7. TBST Buffer. • 8. 10% aqueous (MilliQue H2O) DMSO. • 9. […] 2× Kinase Dilution Buffer: for 100 ml, mix 10 mL 1M HEPES at pH 7.5 with 0.4 mL 5% BSA/PBS, 0.2 mL 0.1 M sodium orthovanadate and 1 mL 5M sodium chloride in 88.4 mL dH2O. • 11. 4×ATP Reaction Mixture: for 10 mL, mix 0.4 mL 1 M manganese chloride and 0.02 mL 0.1 M ATP in […] dH2O. • 12. 4× Negative Controls Mixture: for 10 mL, mix 0.4 mL 1 M manganese chloride in 9.6 mL dH2O.
13. […] 500 mM EDTA. • 15. Antibody Dilution Buffer: for 100 mL, mix 10 mL 5% BSA/PBS, 0.5 mL 5% Carnation Instant Milk® in PBS and 0.1 mL 0.1 M sodium orthovanadate in 88.4 mL TBST. • 16. Rabbit polyclonal antophosphotyrosine antibody, Sugen, Inc. • 17. Goat anti-rabbit horseradish peroxidase conjugated antibody, Biosource, Inc. • 18. ABTS Solution: for 1 L, mix 19.21 g citric acid, 35.49 g Na2HPO4 and 500 mg ABTS with sufficient dH2O to make 1 L. • 19. ABTS/H2O2: mix 15 mL ABST solution with 2 μL H2O2 five minutes before use. • 20. 0.2 M HCl Procedure: • 1. Coat ELISA plates with 2 μg Poly(Glu-Tyr) in 100 μL PBS, store overnight at 4° C. • 2. Block plate with 150 μL of 5% BSA/PBS for 60 min. • 3. Wash plate twice with PBS, once with 50 mM Hepes buffer pH 7.4. • 4. Add 50 μl of the diluted kinase to all wells. (Purified kinase is diluted with Kinase Dilution Buffer. Final concentration should be 10 ng/well.) • 5. Add 25 μL of the test compound (in 4% DMSO) or DMSO alone (4% in dH2O) for controls to plate. • 6. Incubate the kinase/compound mixture for 15 minutes. • 7. Add 25 μL of 40 mM MnCl2 to the negative control wells. • 8. Add 25 μL ATP/MnCl2 mixture to the all other wells (except the negative controls). Incubate for 5 min. • 9. Add 25 μL 500 mM EDTA to stop reaction. • 10. Wash plate 3× with TBST. • 11. Add 100 μL rabbit polyclonal anti-Ptyr diluted 1:10,000 in Antibody Dilution Buffer to each well. Incubate, with shaking, at room temperature for one hour. • 12. Wash plate 3× with TBST. • 13. […] Add 100 μL per well and incubate at room temperature, with shaking, for one hour. • 14. Wash plate 1× with PBS. • 15. Add 100 μl of ABTS/H2O2 solution to each well. • 16. If necessary, stop the development reaction with the addition of […] of 0.2M HCl per well. • 17.

IC50 [µM] | SMILES
> 20 | Cc1ccc(C)c2c1NC(=O)/C2=N\NC(=O)C1Cc2ccccc2C1 [Example I-58, Indan-2-carboxylic acid [(3Z)-4,7-dimethyl-2-oxo-1,2-dihydro-indol-3-ylidene]-hydrazide]
> 20 | O=C1Nc2ccccc2/C1=N/NC(=O)C1Cc2ccccc2C1 [Example I-59, Indan-2-carboxylic acid [(3Z)-2-oxo-1,2-dihydro-indol-3-ylidene)-hydrazide]
0.98 | Cc1cc(CCN2CCCC2)c(C)c2c1NC(=O)/C2=N\NC(=O)C(C)c1ccc(F)cc1 (stereo not shown) [Example I-62, 2-(4-Fluoro-phenyl)-propionic acid [(3Z)-4,7-dimethyl-2-oxo-5-(2-pyrrolidin-1-yl-ethyl)-1,2-dihydro-indol-3-ylidene]-hydrazide]
1.05 | CCN(CC)CCc1cc(C)c2c(c1C)/C(=N/NC(=O)C(C)c1ccc(F)cc1)C(=O)N2 (stereo not shown) [Example I-63, 2-(4-Fluoro-phenyl)-propionic acid [(3Z)-5-(2-diethylamino-ethyl)-4,7-dimethyl-2-oxo-1,2-dihydro-indol-3-ylidene]-hydrazide]
6.66 | O=C(Cc1ccccc1)N/N=C1\C(=O)Nc2ccccc21 [II-3, Phenyl-acetic acid [(3Z)-2-oxo-1,2-dihydro-indol-3-ylidene]-hydrazide]
5.87 | O=C(Cc1ccc(Cl)cc1)N/N=C1\C(=O)Nc2ccccc21 [II-4, (4-Chloro-phenyl)-acetic acid [(3Z)-2-oxo-1,2-dihydro-indol-3-ylidene]-hydrazide]
> 20 | COc1ccc(CC(=O)N/N=C2\C(=O)Nc3ccccc32)cc1OC [II-5, (3,4-Dimethoxy-phenyl)-acetic acid [(3Z)-2-oxo-1,2-dihydro-indol-3-ylidene]-hydrazide]
> 20 | O=C(Cc1ccccc1)N/N=C1\C(=O)Nc2ccccc21 [II-6, Phenyl-acetic acid [(3E)-2-oxo-1,2-dihydro-indol-3-ylidene]-hydrazide]
> 20 | O=C(Cc1ccc(Cl)cc1)N/N=C1\C(=O)Nc2ccccc21 [II-7, (4-Chloro-phenyl)-acetic acid [(3E)-2-oxo-1,2-dihydro-indol-3-ylidene]-hydrazide]
> 20 | CC(C)Oc1ccc(CC(=O)N/N=C2\C(=O)Nc3ccccc32)cc1 [II-9, (4-Isopropoxy-phenyl)-acetic acid [(3Z)-2-oxo-1,2-dihydro-indol-3-ylidene]-hydrazide]
> 20 | CCOc1ccc(CC(=O)N/N=C2\C(=O)Nc3ccccc32)cc1 [II-10, (4-Ethoxy-phenyl)-acetic acid [(3Z)-2-oxo-1,2-dihydro-indol-3-ylidene]-hydrazide]
> 20 | Cc1ccc(CC(=O)N/N=C2\C(=O)Nc3ccccc32)cc1 [II-11, p-Tolyl-acetic acid [(3Z)-2-oxo-1,2-dihydro-indol-3-ylidene]-hydrazide]
7.2 | COc1cccc(CC(=O)N/N=C2\C(=O)Nc3ccccc32)c1 [II-12, (3-Methoxy-phenyl)-acetic acid [(3Z)-2-oxo-1,2-dihydro-indol-3-ylidene]-hydrazide]
> 20 | O=C(Cc1ccccc1Cl)N/N=C1\C(=O)Nc2ccccc21 [II-13, (2-Chloro-phenyl)-acetic acid [(3Z)-2-oxo-1,2-dihydro-indol-3-ylidene]-hydrazide]
5.68 | O=C(Cc1cccc(Cl)c1)N/N=C1\C(=O)Nc2ccccc21 [II-14, (3-Chloro-phenyl)-acetic acid [(3Z)-2-oxo-1,2-dihydro-indol-3-ylidene]-hydrazide]
13.7 | O=C(Cc1cccc(Cl)c1)N/N=C1\C(=O)Nc2ccc(Br)cc21 [II-15, (3-Chloro-phenyl)-acetic acid [(3Z)-5-bromo-2-oxo-1,2-dihydro-indol-3-ylidene]-hydrazide]
18.5 | COc1ccc(CC(=O)N/N=C2\C(=O)Nc3ccc(Br)cc32)cc1OC [II-16, (3,4-Dimethoxy-phenyl)-acetic acid [(3Z)-5-bromo-2-oxo-1,2-dihydro-indol-3-ylidene)-hydrazide]

IC50 [µM] | SMILES
0.23 | COc1ccc(C(C)C(=O)N/N=C2\C(=O)Nc3ccccc32)cc1 (stereo not shown) [II-17]
0.03 | CC(C(=O)N/N=C1\C(=O)Nc2ccccc21)c1ccc(O)cc1 (stereo not shown) [II-18, 2-(4-Hydroxy-phenyl)-propionic acid [(3Z)-2-oxo-1,2-dihydro-indol-3-ylidene]-hydrazide]
0.029 | O=C(Cc1ccc(O)cc1)N/N=C1\C(=O)Nc2ccc(F)cc21 [II-19, (4-Hydroxy-phenyl)-acetic acid [(3Z)-5-fluoro-2-oxo-1,2-dihydro-indol-3-ylidene]-hydrazide]
0.024 | O=C(Cc1ccc(O)cc1)N/N=C1\C(=O)Nc2ccc(Br)cc21 [II-20, (4-Hydroxy-phenyl)-acetic acid [(3Z)-5-bromo-2-oxo-1,2-dihydro-indol-3-ylidene]-hydrazide]
3.1 | O=C(Cc1ccncc1)N/N=C1\C(=O)Nc2ccccc21 [II-21, Pyridin-4-yl-acetic acid [(3Z)-2-oxo-1,2-dihydro-indol-3-ylidene]-hydrazide]
> 20 | Nc1ccc(CC(=O)N/N=C2\C(=O)Nc3ccccc32)cc1 [II-22]
0.52 | O=C(Cc1ccc(O)cc1)N/N=C1\C(=O)Nc2ccccc21 [II-23, (4-Hydroxy-phenyl)-acetic acid [(3E)-2-oxo-1,2-dihydro-indol-3-ylidene]-hydrazide]
> 20 | O=C(CCc1ccc(O)cc1)N/N=C1\C(=O)Nc2ccccc21 [II-24, 3-(4-Hydroxy-phenyl)-propionic acid [(3E)-2-oxo-1,2-dihydro-indol-3-ylidene]-hydrazide]
6.35 | O=C(CCc1ccc(O)cc1)N/N=C1\C(=O)Nc2ccccc21 [II-25, 3-(4-Hydroxy-phenyl)-propionic acid [(3Z)-2-oxo-1,2-dihydro-indol-3-ylidene]-hydrazide]
0.02 | Cc1cc(C)c2c(c1)/C(=N/NC(=O)Cc1ccc(O)cc1)C(=O)N2 [II-26, (4-Hydroxy-phenyl)-acetic acid [(3Z)-5,7-dimethyl-2-oxo-1,2-dihydro-indol-3-ylidene]-hydrazide]
2.15 | O=C(Cc1ccc(F)cc1)N/N=C1\C(=O)Nc2ccccc21 [II-27, (4-Fluoro-phenyl)-acetic acid [(3Z)-2-oxo-1,2-dihydro-indol-3-ylidene]-hydrazide]
1.45 | O=C(Cc1cccc(O)c1)N/N=C1\C(=O)Nc2ccccc21 [II-30, (3-Hydroxy-phenyl)-acetic acid [(3Z)-2-oxo-1,2-dihydro-indol-3-ylidene]-hydrazide]
0.015 | Cc1ccc(C)c2c1NC(=O)/C2=N\NC(=O)Cc1ccc(O)cc1 [II-31, (4-Hydroxy-phenyl)-acetic acid [(3Z)-4,7-dimethyl-2-oxo-1,2-dihydro-indol-3-ylidene]-hydrazide]
0.054 | O=C(Cc1ccc(O)cc1)N/N=C1\C(=O)Nc2c(Br)cc(Cl)cc21 [II-32, (4-Hydroxy-phenyl)-acetic acid [(3Z)-7-bromo-5-chloro-2-oxo-1,2-dihydro-indol-3-ylidene]-hydrazide]
0.015 | O=C(Cc1ccc(O)cc1)N/N=C1\C(=O)Nc2ccc(Cl)c(Cl)c21 [II-33, (4-Hydroxy-phenyl)-acetic acid [(3Z)-4,5-dichloro-2-oxo-1,2-dihydro-indol-3-ylidene]-hydrazide]
> 20 | O=C(Cc1ccc(Br)cc1)N/N=C1\C(=O)Nc2ccccc21 [II-34, (4-Bromo-phenyl)-acetic acid [(3Z)-2-oxo-1,2-dihydro-indol-3-ylidene]-hydrazide]
0.016 | Cc1c(Br)ccc2c1/C(=N/NC(=O)Cc1ccc(O)cc1)C(=O)N2 [II-35, (4-Hydroxy-phenyl)-acetic acid [(3Z)-5-bromo-4-methyl-2-oxo-1,2-dihydro-indol-3-ylidene)-hydrazide]
